From PubChem BioAssay AID1259407 (Chemical Carcinogenesis Research Information System (CCRIS), 2018)
The source made the active and inactive calls. No rule for the calls is given here.

System: CCRIS mutagenicity, Ames/micronucleus/aberration tests
Assay: CCRIS mutagenicity studies
[1] = Test System: AMES SALMONELLA TYPHIMURIUM, Strain/Indicator: TA97, Metabolic Activation: NONE, Method: PREINCUBATION
[2] = Test System: AMES SALMONELLA TYPHIMURIUM, Strain/Indicator: TA98, Metabolic Activation: NONE, Method: PREINCUBATION
[3] = Test System: AMES SALMONELLA TYPHIMURIUM, Strain/Indicator: TA100, Metabolic Activation: NONE, Method: PREINCUBATION
[4] = Test System: AMES SALMONELLA TYPHIMURIUM, Strain/Indicator: TA1535, Metabolic Activation: NONE, Method: PREINCUBATION

Measured: mutagenic call

CCCCCCCCc1ccc(Nc2ccc(CCCCCCCC)cc2)cc1
inactive: End Point: IN VITRO CHROMOSOMAL ABERRATIONS, Test System: CHINESE HAMSTER LUNG CELLS (CHL), Metabolic Activation: NONE inactive; negative | End Point: IN VITRO CHROMOSOMAL ABERRATIONS, Test System: CHINESE HAMSTER LUNG CELLS (CHL), Metabolic Activation: RAT, LIVER, S-9, KC-400 inactive; negative | End Point: IN VITRO CHROMOSOMAL ABERRATIONS, Test System: CHINESE HAMSTER OVARY CELLS (CHO), Metabolic Activation: NONE inactive; negative | End Point: IN VITRO CHROMOSOMAL ABERRATIONS, Test System: CHINESE HAMSTER OVARY CELLS (CHO), Metabolic Activation: RAT, LIVER, S-9, AROCLOR 1254 inactive; negative | End Point: IN VITRO CHROMOSOMAL ABERRATIONS, Test System: CHO-LB CELLS, Metabolic Activation: NONE inactive; negative | End Point: IN VITRO CHROMOSOMAL ABERRATIONS, Test System: CHO-LB CELLS, Metabolic Activation: RAT, LIVER, S-9, AROCLOR 1254 inactive; negative | Test System: AMES SALMONELLA TYPHIMURIUM, Strain/Indicator: TA97, Metabolic Activation: HAMSTER, LIVER, S-9, AROCLOR 1254 (10 OR 30%), Method: PREINCUBATION inactive; negative | [1] inactive; negative | Test System: AMES SALMONELLA TYPHIMURIUM, Strain/Indicator: TA97, Metabolic Activation: RAT, LIVER, S-9, AROCLOR 1254 (10 OR 30%), Method: PREINCUBATION inactive; negative | Test System: AMES SALMONELLA TYPHIMURIUM, Strain/Indicator: TA98, Metabolic Activation: HAMSTER, LIVER, S-9, AROCLOR 1254 (10 OR 30%), Method: PREINCUBATION inactive; negative | [2] inactive; negative | Test System: AMES SALMONELLA TYPHIMURIUM, Strain/Indicator: TA98, Metabolic Activation: RAT, LIVER, S-9, AROCLOR 1254 (10 OR 30%), Method: PREINCUBATION inactive; negative | Test System: AMES SALMONELLA TYPHIMURIUM, Strain/Indicator: TA100, Metabolic Activation: HAMSTER, LIVER, S-9, AROCLOR 1254 (10 OR 30%), Method: PREINCUBATION inactive; negative | [3] inactive; negative | Test System: AMES SALMONELLA TYPHIMURIUM, Strain/Indicator: TA100, Metabolic Activation: RAT, LIVER, S-9, AROCLOR 1254 (10 OR 30%), Method: PREINCUBATION inactive; negative | Test System: AMES SALMONELLA TYPHIMURIUM, Strain/Indicator: TA1535, Metabolic Activation: HAMSTER, LIVER, S-9, AROCLOR 1254 (10 OR 30%), Method: PREINCUBATION inactive; negative | [4] inactive; negative | Test System: AMES SALMONELLA TYPHIMURIUM, Strain/Indicator: TA1535, Metabolic Activation: RAT, LIVER, S-9, AROCLOR 1254 (10 OR 30%), Method: PREINCUBATION inactive; negative | Test System: AMES SALMONELLA TYPHIMURIUM, Strain/Indicator: TA1537, Metabolic Activation: HAMSTER, LIVER, S-9, AROCLOR 1254 (30%), Method: PREINCUBATION inactive; negative | Test System: AMES SALMONELLA TYPHIMURIUM, Strain/Indicator: TA1537, Metabolic Activation: NONE, Method: PREINCUBATION inactive; negative | Test System: AMES SALMONELLA TYPHIMURIUM, Strain/Indicator: TA1537, Metabolic Activation: RAT, LIVER, S-9, AROCLOR 1254 (30%), Method: PREINCUBATION inactive; negative

COc1ccc(C(=O)/C(Br)=C\C(=O)O)cc1
active: End Point: IN VITRO CHROMOSOMAL ABERRATIONS, Test System: CHO CELLS, Metabolic Activation: NONE active; positive | End Point: IN VITRO CHROMOSOMAL ABERRATIONS, Test System: CHO CELLS, Metabolic Activation: RAT, LIVER, S-9, AROCLOR 1254 active; positive | Test System: AMES SALMONELLA TYPHIMURIUM, Strain/Indicator: TA97, Metabolic Activation: HAMSTER, LIVER, S-9, AROCLOR 1254 (10%), Method: PREINCUBATION active; positive | [1] active; positive | Test System: AMES SALMONELLA TYPHIMURIUM, Strain/Indicator: TA97, Metabolic Activation: RAT, LIVER, S-9, AROCLOR 1254 (10%), Method: PREINCUBATION active; positive | Test System: AMES SALMONELLA TYPHIMURIUM, Strain/Indicator: TA98, Metabolic Activation: HAMSTER, LIVER, S-9, AROCLOR 1254 (10%), Method: PREINCUBATION active; positive | [2] active; positive | Test System: AMES SALMONELLA TYPHIMURIUM, Strain/Indicator: TA98, Metabolic Activation: RAT, LIVER, S-9, AROCLOR 1254 (10%), Method: PREINCUBATION active; positive | Test System: AMES SALMONELLA TYPHIMURIUM, Strain/Indicator: TA100, Metabolic Activation: HAMSTER, LIVER, S-9, AROCLOR 1254 (10%), Method: PREINCUBATION active; positive | [3] active; positive | Test System: AMES SALMONELLA TYPHIMURIUM, Strain/Indicator: TA100, Metabolic Activation: RAT, LIVER, S-9, AROCLOR 1254 (10%), Method: PREINCUBATION active; positive | Test System: AMES SALMONELLA TYPHIMURIUM, Strain/Indicator: TA1535, Metabolic Activation: HAMSTER, LIVER, S-9, AROCLOR 1254 (10%), Method: PREINCUBATION active; positive | Test System: AMES SALMONELLA TYPHIMURIUM, Strain/Indicator: TA1535, Metabolic Activation: RAT, LIVER, S-9, AROCLOR 1254 (10%), Method: PREINCUBATION active; positive | Test System: MOUSE LYMPHOMA, Strain/Indicator: L5178Y (TK+/TK-), Metabolic Activation: NONE, Method: SUSPENSION/PLATE active; positive | Test System: UDS RODENT HEPATOCYTES, Strain/Indicator: THY INCORP (NON-S-PHASE), Metabolic Activation: 3-METHYLCHOLANTHRENE, Method: AUTORADIOGRAPHY active; positive | Test System: UDS RODENT HEPATOCYTES, Strain/Indicator: THY INCORP (NON-S-PHASE), Metabolic Activation: AROCLOR, Method: AUTORADIOGRAPHY active; positive
inactive: [4] inactive; negative | Test System: UDS RODENT HEPATOCYTES, Strain/Indicator: THY INCORP (NON-S-PHASE), Metabolic Activation: NONE, Method: AUTORADIOGRAPHY inactive; negative

Cc1ccc(NC(=O)c2ccc(CN3CCN(C)CC3)cc2)cc1Nc1nccc(-c2cccnc2)n1
active: End Point: IN VITRO CHROMOSOMAL ABERRATIONS, Test System: CHINESE HAMSTER EMBRYO (CHE), Metabolic Activation: NONE active; positive (structural and numerical changes) | End Point: IN VITRO CHROMOSOMAL ABERRATIONS, Test System: INDIAN MUNTJAK FIBROBLASTS (IMF), Metabolic Activation: NONE active; positive (numerical changes) | End Point: IN VITRO CHROMOSOMAL ABERRATIONS, Test System: NORMAL HUMAN DERMAL FIBROBLASTS (NHDF), Metabolic Activation: NONE active; positive (structural changes)

CCN(Cc1cccc(S(=O)(=O)O)c1)c1ccc(C(=C2C=CC(=[N+](CC)Cc3cccc(S(=O)(=O)O)c3)C=C2)c2ccc(O)cc2S(=O)(=O)[O-])cc1
inactive: End Point: IN VIVO MICRONUCLEUS, Test System: BONE MARROW POLYCHROMATIC ERYTHROCYTES, Species: MOUSE, Strain/Sex: DDY/MALE, Route: IP inactive; negative | Test System: Mouse lymphoma, Strain/Indicator: L5178Y (tk+/tk-), Metabolic Activation: None, Method: Suspension/plate inactive; negative | Test System: Mouse lymphoma, Strain/Indicator: L5178Y (tk+/tk-), Metabolic Activation: Rat, Liver, S-9, Aroclor 1254, Method: Suspension/plate inactive; negative
